These results are taken from patent publication US6930118B2, “3-Oxadiazol-5-yl-1-aminoalkyl-1h-indole derivatives” (Amrad Operations Pty. Ltd., priority 2001, dated 2005).

One assay deals with T1, CB1 receptor (Mus musculus, UniProt P47746).
T1 construct: Mouse vasa deferentia were dissected with capsular connective tissue intact and set up in 20 ml organ baths; from tissue; host or cells: mouse (Swiss white) isolated vas deferens
Kind of assay: Mouse electrically-stimulated isolated vas deferens bioassay (MVD). The assay is classed as cell-based. Particulars: decrease of electrically evoked twitch force, read-out: CB1 (MVD) % inh at 1.0 μM. As to the method:
Functional activity of the compounds was assayed using the mouse electrically-stimulated vas deferens bioassay, a measure of CB1 receptor function (24,25). […] CB2 functionality may be investigated using assays known to those skilled in the art; for example those described in U.S. Pat. No. 6,013,648.
Swiss white mice (35-40 g) were killed by exposure to 80% CO2 in O2 and exsanguination. Mouse vasa deferentia were dissected with capsular connective tissue intact and set up in 20 ml organ baths at 37° C. in Mg^2+-free physiological salt solution. The upper (epididymal) end was attached to an isometric force transducer (Grass FTO3C) and the lower (prostatic) end tied to a fixed support between two parallel platinum field electrodes (5 mm apart, 5 mm long). The tissue was initially stretched by 0.5 g force and allowed to equilibrate 10 min. The tissues were stimulated (Grass S88 stimulator) to contract using trains of electrical field stimulation of 3 pulses (4 Hz), 0.5 ms duration, 100 V (80% maximal voltage) every 20 s for 10 min. This electrical stimulation period was applied before and after both antagonist and agonist addition. Output from the transducer amplifier was recorded on a flat bed recorder (Gould BS 272, Cleveland, Ohio, U.S.A.). All drugs were dissolved in dimethyl sulfoxide (DMSO; Sigma, St Louis, Mo., U.S.A.) and allowed to equilibrate with the tissue for 30 min before the responses to field stimulation were assessed. Drug effects were measured as the percentage decrease of the pre-drug twitch force.

The target of a further assay is T2, CB2 receptor (Rattus norvegicus, UniProt Q9QZN9).
T2 sequence (Q9QZN9 1-343 limits assumed): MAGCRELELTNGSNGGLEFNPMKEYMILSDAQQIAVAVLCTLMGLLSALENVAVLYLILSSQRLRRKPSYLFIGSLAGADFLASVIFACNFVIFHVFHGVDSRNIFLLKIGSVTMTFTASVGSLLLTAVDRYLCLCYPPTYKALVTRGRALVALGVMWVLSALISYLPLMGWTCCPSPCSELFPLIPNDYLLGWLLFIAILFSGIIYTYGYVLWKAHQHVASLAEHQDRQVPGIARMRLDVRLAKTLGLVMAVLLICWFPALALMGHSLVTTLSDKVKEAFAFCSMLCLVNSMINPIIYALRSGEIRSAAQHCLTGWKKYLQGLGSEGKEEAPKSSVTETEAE
Put plainly: Radioligand binding assay, rat spleen membranes. As for the experimental part:
The affinity of compounds at cannabinoid receptors is routinely assessed using ligand binding assays known to those skilled in the art. Radioligand binding assays were conducted using rat cerebellum or rat spleen. The cerebellum of the rat is known to express predominantly, if not exclusively, the CB1 receptor subtype (20,21). Thus, binding constants obtained from these studies are characterised by a single affinity value, as only one receptor type is labelled. […] In contrast, biphasic binding curves in the spleen characterised by two affinity constants represent the profile of compounds showing selectivity for one receptor subtype over another. In order to determine the order of selectivity, the high and low affinity values obtained for these compounds in the spleen binding assays were compared to the single affinity estimates obtained for the cerebellum (CB1) assays.
Sprague Dawley rats (200-300 g) were killed by gassing with 80% CO2 in O2 and decapitation and the spleen excised rapidly and placed in ice-cold Tris-HCl buffer (Tris 50 mM, MgCl2 3 mM, EGTA 0.2 mM, pH 7.4). The spleen was weighed and diced using a scalpel before homogenisation in 10 volumes of Tris-HCl buffer. The homogenate was then made up to 20 volumes and centrifuged (12,600 g, 5 min, 4° C.), the supernatant was retained and centrifuged (23,800 g, 20 min, 4° C.). The pellet was resuspended in 10 volumes of buffer and assayed for protein content using the method of Bradford (Bradford, 1976) with BSA as the standard. The homogenate was then recentrifuged and the final pellet resuspended in Tris-HCl buffer at a protein concentration of 5 mg/ml and stored in 500 μl aliquots at −80° C. until used for the binding assay.
Ligand binding assays were performed in polypropylene tubes in a total volume of 1 ml containing Tris-HCl buffer, a final concentration of 1 mg/ml BSA, and varying concentrations of drugs. Tubes contained 30 μg of membrane protein and incubation was started by the addition of 100 μl of either 0.5 nM [^3H]SR141716A or 0.2 nM [^3H]WIN 55,212-2. Experiments were carried out in triplicate at 30° C. for 90 min with non-specific binding being defined as radioligand binding in the presence of 1 μM unlabelled WIN 55,212-2. Incubations were terminated by rapid filtration with a M-24 Cell Harvester (Brandel; Gaithersburg, Md., U.S.A.) using ice-cold Tris-HCl buffer containing 0.5 mg/ml BSA. Filters (Wattman GF/B) were soaked for 2 h prior to filtering in a solution of Tris-HCl buffer containing 3 mg/ml BSA and 0.5% w/w polyethyleneimine (PEI). Filters were left to dry thoroughly before placement into scintillation vials with 5 ml of scintillation cocktail (Ultima Gold LSC-cocktail; Packard Bioscience, Meriden, Conn., U.S.A.) being added. Vials were left to stand overnight before the radioactivity was determined using a Model 1409 DSA Liquid Scintillation counter (EG&E Wallac, Gaithersburg, Md., U.S.A.).
The resulting radioligand binding curves were analyzed by nonlinear regression using the program PRISM 3.0 (GraphPad Software, San Diego, Calif.) in order to derive ligand affinity estimates for the cannabinoid receptor(s).

A further assay has as its system Sprague-Dawley rats. Put plainly: Neuropathic pain testing: L5/L6 spinal nerve ligation, tactile allodynia with von Frey hairs. The assay is classed as in vivo. The note with it: intraperitoneal injection, propylene glycol vehicle, rat. The source says: Production of a unilateral hind limb neuropathy in male Sprague-Dawley rats was achieved using the technique of L5 and L6 spinal nerve ligation, according to the method of Kim and Chung (1992). Animals were given one week to recover from surgery prior to testing for the development of […] pain.
The testing procedure involved the determination of tactile allodynia using von Frey hairs, which were applied sequentially to the plantar surface of the rat paw starting with 2 g of force and proceeding upwards to a maximum of 15.1 g of force or downwards to a minimum of 0.4 g force. The 15.1 g force was used to define the maximum possible effect (MPE) for this test of neuropathic pain. Once paw withdrawal occurred, the 50% withdrawal threshold was determined using the “up-down” method as published by Dixon (1980). Both hind paws were tested. Response to therapy as measured by tactile allodynia threshold was calculated using the percentage maximum possible effect (% MPE) according to the following equation: % MPE=100×([Measured value]−[Pre-treatment value])/([MPE]−[Pre-treatment value]).
Drugs were dissolved in a propylene glycol vehicle and administered via intraperitoneal injection.

T1 sequence (P47746 whole entry): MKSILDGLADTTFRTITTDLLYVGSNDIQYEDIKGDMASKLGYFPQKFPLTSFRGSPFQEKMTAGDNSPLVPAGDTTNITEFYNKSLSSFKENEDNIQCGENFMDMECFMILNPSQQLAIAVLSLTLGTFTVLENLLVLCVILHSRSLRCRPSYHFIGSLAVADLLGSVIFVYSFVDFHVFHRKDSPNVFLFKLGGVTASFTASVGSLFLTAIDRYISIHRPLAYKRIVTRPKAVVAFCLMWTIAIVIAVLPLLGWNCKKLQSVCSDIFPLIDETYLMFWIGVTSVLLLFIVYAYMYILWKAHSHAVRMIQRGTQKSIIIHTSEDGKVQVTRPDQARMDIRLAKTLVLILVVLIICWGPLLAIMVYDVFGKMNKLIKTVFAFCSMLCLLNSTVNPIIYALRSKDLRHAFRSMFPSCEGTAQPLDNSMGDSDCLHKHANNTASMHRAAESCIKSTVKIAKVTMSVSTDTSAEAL

On to `c1ccc(Cc2noc(-c3cn(CCN4CCCC4)c4ccccc34)n2)cc1` [Compound 1, 3-(3-Benzyl-[1,2,4]-oxadiazol-5-yl)-1-[2-(pyrrolidin-1-yl)ethyl]-1H-indole], for which the inhibition at 1 µM at CB1 receptor was found to be 80%. On CB2 receptor, this compound came in with an IC50 of 1600 nM. For the same compound, the “antinociceptive effect in model of neuropathic pain” value in the assay on Sprague-Dawley rats is recorded as “significant antinociceptive effect”.
